Source: patent US11858970B1, “Chili pepper seed isolated oligopeptide FTLE and application thereof in preventing or treating cancer” (CHINA AGRICULTURAL UNIVERSITY, priority 2022, dated 2024)

Test system: HepG2 cells
Experiment: HepG2 cell proliferation measured by MTT method
Type: cell-based
Conditions: peptide at 0.1, 0.3 and 0.6 mM, 24 hours, compared with other synthetic peptides
Description: Chemical systhesis was conducted in accordance with the peptide sequences obtained by mass spectrometry identification analysis of Example 1 to obtain synthetic peptides. The effect of each peptide on HepG2 cell proliferation was studied, and the specific steps were as follows:
1) HepG2 cell culture: hepG2 cells were obtained from the ATCC cell bank and were cultured in a DMEM medium containing 10% FBS at 37° C. in a 5% CO2 cell incubator. Cells were cultured in a 25 cm ^2 flask, passaged when cells were grown to a density of 70% to 90%, and seeded in a 96-well plate.
2) Peptide fragment treatment: after 24 hours of cell culture in the 96-well plate, the original DMEM medium was aspirated from the wells. DMEM containing peptide fragments at concentrations of 0.1, 0.3, and 0.6 mM were added to each well to continue culturing for 24 hours.
3) Cell proliferation rate measured by MTT method: MTT at a concentration of 5 mg/mL was added to a 96-well plate in 20 μL per well. After incubation for 4 hours, the liquid was aspirated from each well. 150 μL DMSO was added to each well. The absorbance was measured after reacting for 20 min.

Substance: Phe-Thr-Leu-Glu (FTLE) [oligopeptide identified in chili pepper seed zymolyte, chemically synthesized for testing]
- HepG2 cell inhibition rate: better HepG2 cell inhibition rate than other oligopeptides
